Experimental data as given in patent EP0279079B1, “Purine derivatives as interleukin-1 inhibitors” (HOECHST MARION ROUSSEL, Inc., priority 1986, dated 1988).

How the values were obtained:
[1] = system: polymorphonuclear neutrophil (PMN); assay: PMN adherence on nylon fiber column; type: cell-based, human; conditions: for percent adherence of PMN on the nylon column: three conditions: M199 "control", IL-1 80U/ml, "LPS KINE"
Experimental: (§1) Purified human IL-1 was obtained from Cistron Technology, Pinebrook, New Jersey. As is known, the production of IL-1 from macrophages or circulating monocytes can be stimulated by the presence of bacterial lipopolysaccharides. Stites et al, Basic and Clinical Immunology, page 87 (1984). Accordingly, in vitro-generated IL-1 was obtained through the incubation of mononuclear leukocytes. Mononuclear leukocytes (3 x 10^6/ml) from ficoll-hypaque separation were incubated in medium 199 (M199) containing 10% fresh autologous serum with or without lipopolysaccharides 5ng/ml or with or without supernatant from C. albicans culture for 18 hours at 37° C (10% CO2) in LAB-TEK Flaskettes (Miles Inc., Naperville, Illinois). The suspension was centrifuged (150g X 10 minutes) and the supernatant filtered (0.45 micron 4) and frozen (-70° C).
Purified PMN (5 x 10^6/ml) were incubated 30 minutes at 37°C in M199, "NONE", LPS (1ng/ml), "LPS", mononuclear leukocyte conditioned medium, "CONT KINES", or in LPS stimulated mononuclear leukocyte conditioned medium, "LPS KINES". One ml was pipetted onto the top of a nylon fiber column and incubated at 37°C for 30 minutes. The PMN in the effluent samples were counted and the percent adherence of PMN on the column determined.
Two tenths ml of purified PMN (1 x 10^7/ml) was incubated 30 minutes at 37°C in M199, "control", or M199 containing IL-1 (80U/ml), "IL-1", or in LPS stimulated mononuclear leukocyte conditioned medium, "LPS KINE", with or without pentoxifylline (0.1 or 50 micrograms/ml).
Following incubation the samples were diluted to a final concentration of 5 x 10^6/ml with M199 (2% serum). One ml was placed onto the top of a nylon fiber column and incubated at 37°C for 30 minutes. The PMN in the effluent samples were counted and the percent adherence of PMN on the nylon column calculated.

[2] = system: polymorphonuclear neutrophil (PMN); assay: PMN chemotaxis (directed migration) under agarose, chemoattractant FMLP; type: cell-based, human; conditions: for directed migration inhibited by "LPS KINE": LPS stimulated mononuclear leukocyte conditioned M199 2% serum; for directed migration inhibited by interleukin-1: MEM containing IL-1 at 0 to 80 Units/ml
Experimental: as §1
Neutrophils were placed in the center well of a triplet and the chemoattractant (FMLP 10^-7M) was placed in one outer well and M199 was placed in the opposite well. Following 2 hours incubation at 37° C the plates were fixed and stained and the zones of migration measured. The directed migration was the distance in mm that the leading front of PMN moved towards the chemoattractant.
(§2) Pure PMN (5 x 10^6/ml) were incubated for 30 minutes at 37°C with or without pentoxifylline (0.1 or 50 micrograms/ml) in M199 2% serum, "NO ADD", M199 2% serum containing LPS (1ng/ml), "LPS", mononuclear leukocyte conditioned M199 2% serum, "CONT KINE", or LPS stimulated mononuclear leukocyte conditioned M199 2% serum, "LPS KINE". The PMN were concentrated 10 fold prior to application in the under agarose chemotaxis assay.
as §2, with “5%” for “2%”, “supernatant from C. albicans culture, "C.ALB",” for “LPS (1ng/ml), "LPS",”, “C. albicans” for “LPS”, “"C. ALB” for “"LPS”
Pure PMN (5 x 10^6/ml) were incubated for 30 minutes at 37°C with or without pentoxifylline (0.1 or 50 micrograms/ml) in minimum essential medium (MEM) or MEM containing IL-1 at 0 to 80 Units/ml. The PMN were concentrated 10 fold prior to application inthe under agarose chemotaxis assay.

[3] = pentoxifylline 0.1 micrograms/ml
[4] = pentoxifylline 50 micrograms/ml

For CC(=O)CCCCn1c(=O)c2c(ncn2C)n(C)c1=O [Pentoxifylline, pentoxifylline], the “percent adherence of PMN on the nylon column” value [1, 3] was “decreased”, the “percent adherence of PMN on the column” value ([1]; pentoxifylline 50 micrograms/ml, all four conditions: M199 "NONE", LPS 1ng/ml, "CONT KINES", "LPS KINES", 30 minutes at 37°C) was “decreased” and the “percent adherence of PMN on the nylon column” value [1, 4] was “decreased”. The “directed migration inhibited by "LPS KINE"” value [2, 3] was “increased”, the “directed migration inhibited by interleukin-1” value [2, 3] was “increased” and the “directed migration inhibited by "C.ALB KINE"” value ([2]; pentoxifylline 50 micrograms/ml, C. albicans stimulated mononuclear leukocyte conditioned M199 5% serum) was “increased”. For the same compound, the “directed migration inhibited by "LPS KINE"” value [2, 4] was “increased”, the “directed migration inhibited by interleukin-1” value [2, 4] was “increased” and the “directed migration inhibited by "CONT KINE"” value ([2]; pentoxifylline 50 micrograms/ml, mononuclear leukocyte conditioned M199 5% serum) was “increased”.
